From patent US8410116B2, “Bis(styryl)pyrimidine or bis(styryl)benzene compounds, pharmaceutically acceptable salts thereof, preparation method thereof, and pharmaceutical composition for prevention or treatment of diseases featuring amyloids comprising the same as an active ingredient” (Korea Institute of Science and Technology, priority 2009, dated 2013)

Legend:
HT-22 cells = assay: Cytotoxicity in HT-22 cell (MTT); type: cell-based, murine; conditions: compound 25 μM, 18 hrs
Procedure: The following experiment was performed with HT-22 cells in order to examine the cytotoxicity of the compounds of the Examples in accordance with the present invention.
(§1) The murine hippocampal neuronal cell line HT-22 was incubated at 37° C. in DMEM (Dulbecco's Modified Eagle's Medium) supplemented with 10% FBS (fetal bovine serum) and 1% penicillin/streptomycin in a 5% CO2 incubator. Before testing, HT-22 cells were seeded at a density of 5×10^3 cells/well onto 96-well plates containing serum-free DMEM and incubated for 1 hr. Afterwards, each of the compounds of Examples 1 to 27 was added at a concentration of 25 μM to each well before incubation for 18 hrs. 5 mg/ml MTT (3-(4,5-dimethyl-2-thiozolyl)-2,5-diphenyl-2H-tetrazolium bromide) solution was added in an amount of 15 μl per well and incubated for 4 hrs. A solubilization solution (10% SDS, 50% dimethylformamide, pH 4.7) was added in an amount of 100 μl to each well, followed by incubation for 18 hrs. Absorbance at 570 nm/630 nm was read on a microplate reader.

[1] = test system: HT-22 cells incubated with beta amyloid (Aβ25-35); assay: Alleviating effect on beta amyloid toxicity in HT-22 cells (MTT); type: cell-based, murine; conditions: Mus musculus, compound pre-incubated 1 hr, then 25 μM beta amyloid (Aβ25-35) for 18 hrs, Aβ25-35 line = toxin alone, read-out: Cell Survival (%)
Procedure: as §1
The following experiment was performed in order to examine the ability of the compounds of the Examples in accordance with the present invention to alleviate beta amyloid toxicity. HT-22 cells were cultured and incubated with the compounds of Examples 1 to 27 for 1 hr in the same manner as in Example 2. Cell necrosis was induced by beta amyloid toxicity. For this, the cells were incubated with 25 μM of beta amyloid (Aβ25-35) for 18 hrs. Subsequently, a 5 mg/ml MTT solution was added in an amount of 15 μl to each well, followed by incubation for 4 hrs. Then, the cells were again incubated for 18 hrs with 100 μl/well of the solubilization solution. Absorbance at 570 nm/630 nm was read on a microplate reader.

beta amyloid (1-42) = beta amyloid (1-42) (Homo sapiens, UniProt P05067); assay: Inhibitory activity against beta amyloid fibril formation (ThT fluorescence); type: biochemical; conditions: for remaining activity at 10 µM: compound 10 μM, beta amyloid (1-42) 25 μM, 1 hr room temperature, beta amyloid alone (control) = 100
Procedure: The compounds of the present invention were assayed for inhibitory activity against the formation of beta amyloid fibrils as a function of ThT fluorescence intensity as follows. Beta amyloid (1-42) and each of the compounds of Examples 1 to 27 were dissolved in DMSO and diluted with PBS (phosphate-buffered saline, pH 7.4). The final concentrations of beta amyloid (1-42) (control) and each of the compounds of Examples 1 to 27 were set at 25 μM and 10 μM, respectively. The dilutions were incubated at room temperature for 1 hr before a solution of thioflavin T (ThT, 5 μM, pH 8.5) in glycin-NaOH buffer was added thereto. Fluorescence was measured at 450 nm for excitation (slit 10 nm) and […] for emission (slit 10 nm) on 96-well microplates using a multilabel fluorescence counter.

beta amyloid (1-42), sequence (P05067 672-713 limits assumed): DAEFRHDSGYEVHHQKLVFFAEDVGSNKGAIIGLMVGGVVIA

With `COc1ccc(/C=C/c2cc(O)cc(/C=C/c3ccc(OC)c(O)c3)c2)cc1O` [Ex. 25, (E,E)-3,5-bis(3′-hydroxy-4′-methoxystyryl)phenol] the “Cell Survival (%)” value (HT-22 cells) was 73.5 ± 14.1%, the viability at 25 µM [1] was 43.2 ± 10% and the remaining activity at 10 µM (beta amyloid (1-42)) was 15.5 ± 3.8%.

For `COc1nc(/C=C/c2ccc(O)cc2)cc(/C=C/c2ccc(O)cc2)n1` [Ex. 8, 2-methoxy-(E,E)-4,6-bis(4′-hydroxystyryl)pyrimidine], the “Cell Survival (%)” value (HT-22 cells) was 101.2 ± 31.8%, the viability at 25 µM [1] was 100 ± 7% and the remaining activity at 10 µM (beta amyloid (1-42)) was 32.6 ± 7.3%.

`COc1cc(/C=C/c2cc(/C=C/c3ccc(O)c(OC)c3)nc(SC)n2)ccc1O` [Ex. 16, 2-methylthio-(E,E)-4,6-bis(4′-hydroxy-3′-methoxystyryl)pyrimidine] was tested, and the “Cell Survival (%)” value (HT-22 cells) was 79.0 ± 7.9%, the viability at 25 µM [1] was 49 ± 4.2% and the remaining activity at 10 µM (beta amyloid (1-42)) was 32.4 ± 12.5%.

`CSc1nc(/C=C/c2ccc(O)c(N(C)C)c2)cc(/C=C/c2ccc(O)c(N(C)C)c2)n1` [Ex. 18, 2-methylthio-(E,E)-4,6-bis[4′-hydroxy-3′-(N,N-dimethylamino)styryl]pyrimidine] was tested, and the “Cell Survival (%)” value (HT-22 cells) was 77.3 ± 15.1%, the viability at 25 µM [1] was 50.9 ± 5.7% and the remaining activity at 10 µM (beta amyloid (1-42)) was 21.4 ± 10.3%.

For `CSc1nc(/C=C/c2cccc(O)c2)cc(/C=C/c2cccc(O)c2)n1` [Ex. 15, 2-methylthio-(E,E)-4,6-bis(3′-hydroxystyryl)pyrimidine], the “Cell Survival (%)” value (HT-22 cells) was 43.7 ± 6.6%, the viability at 25 µM [1] was 39.6 ± 0.4% and the remaining activity at 10 µM (beta amyloid (1-42)) was 153 ± 16.3%.

`CSc1nc(/C=C/c2ccc(O)cc2)cc(/C=C/c2ccc(O)cc2)n1` [Ex. 14, 2-methylthio-(E,E)-4,6-bis(4′-hydroxystyryl)pyrimidine] was tested, and the “Cell Survival (%)” value (HT-22 cells) was 65.3 ± 6.0%, the viability at 25 µM [1] was 34.2 ± 4% and the remaining activity at 10 µM (beta amyloid (1-42)) was 32.6 ± 7.4%.

With `COc1ccc(/C=C/c2cccc(/C=C/c3ccc(OC)c(O)c3)c2)cc1O` [Ex. 3, (E,E)-1,3-Bis(3′-hydroxy-4′-methoxystyryl)benzene] the “Cell Survival (%)” value (HT-22 cells) was 69.5 ± 4.2%, the viability at 25 µM [1] was 54.7 ± 5.3% and the remaining activity at 10 µM (beta amyloid (1-42)) was 32.1 ± 1.1%.

For `CSc1nc(/C=C/c2ccc(N(C)C)c(O)c2)cc(/C=C/c2ccc(N(C)C)c(O)c2)n1` [Ex. 19, 2-methylthio-(E,E)-4,6-bis[3′-hydroxy-4′-(N,N-dimethylamino)styryl]pyrimidine], the “Cell Survival (%)” value (HT-22 cells) was 85.3 ± 8.1%, the viability at 25 µM [1] was 69.7 ± 0.4% and the remaining activity at 10 µM (beta amyloid (1-42)) was 11.2 ± 4.2%.

In the case of `Oc1cccc(/C=C/c2cc(/C=C/c3cccc(O)c3)ncn2)c1` [Ex. 5, (E,E)-4,6-bis(3′-hydroxystyryl)pyrimidine], the “Cell Survival (%)” value (HT-22 cells) is reported as 142.5 ± 5.6%, the viability at 25 µM [1] is reported as 43.5 ± 13.4% and the remaining activity at 10 µM (beta amyloid (1-42)) is reported as 85.9 ± 19.7%.

For `CN(C)c1cc(/C=C/c2cc(O)cc(/C=C/c3ccc(O)c(N(C)C)c3)c2)ccc1O` [Ex. 26, (E,E)-3,5-bis[4′-hydroxy-3′-(N,N-dimethylamino)styryl]phenol], the “Cell Survival (%)” value (HT-22 cells) was 66.0 ± 12.1%, the viability at 25 µM [1] was 47.4 ± 0.6% and the remaining activity at 10 µM (beta amyloid (1-42)) was 25.8 ± 5.8%.

`Oc1ccc(/C=C/c2cc(/C=C/c3ccc(O)cc3)ncn2)cc1` [Ex. 4, (E,E)-4,6-bis(4′-hydroxystyryl)pyrimidine] was tested, and the “Cell Survival (%)” value (HT-22 cells) was 104.2 ± 7.1%, the viability at 25 µM [1] was 81 ± 1.2% and the remaining activity at 10 µM (beta amyloid (1-42)) was 35.7 ± 7%.

In the case of `Oc1cccc(/C=C/c2cc(O)cc(/C=C/c3cccc(O)c3)c2)c1` [Ex. 23, (E,E)-3,5-bis(3′-hydroxystyryl)phenol], the “Cell Survival (%)” value (HT-22 cells) is reported as 59.2 ± 15.4%, the viability at 25 µM [1] is reported as 47.7 ± 11.1% and the remaining activity at 10 µM (beta amyloid (1-42)) is reported as 92.9 ± 12.4%.

`CN(C)c1ccc(/C=C/c2cc(O)cc(/C=C/c3ccc(N(C)C)c(O)c3)c2)cc1O` [Ex. 27, (E,E)-3,5-bis[3′-hydroxy-4′-(N,N-dimethylamino)styryl]phenol] was tested, and the “Cell Survival (%)” value (HT-22 cells) was 64.4 ± 4.2%, the viability at 25 µM [1] was 50.5 ± 3.9% and the remaining activity at 10 µM (beta amyloid (1-42)) was 16.7 ± 0.7%.

`COc1nc(/C=C/c2ccc(OC)c(O)c2)cc(/C=C/c2ccc(OC)c(O)c2)n1` [Ex. 11, 2-methoxy-(E,E)-4,6-bis(3′-hydroxy-4′-methoxystyryl)pyrimidine] was tested, and the “Cell Survival (%)” value (HT-22 cells) was 98.4 ± 2.7%, the viability at 25 µM [1] was 66.2 ± 11.5% and the remaining activity at 10 µM (beta amyloid (1-42)) was 45 ± 9.2%.

In the case of `CN(C)c1ccc(/C=C/c2cccc(/C=C/c3ccc(N(C)C)c(O)c3)c2)cc1O` [Ex. 21, (E,E)-1,3-bis[3′-hydroxy-4′-(N,N-dimethylamino)styryl]benzene], the “Cell Survival (%)” value (HT-22 cells) is reported as 100.8 ± 7.6%, the viability at 25 µM [1] is reported as 52.8 ± 7.2% and the remaining activity at 10 µM (beta amyloid (1-42)) is reported as 44 ± 8.3%.

With `COc1ccc(/C=C/c2cc(/C=C/c3ccc(OC)c(O)c3)nc(SC)n2)cc1O` [Ex. 17, 2-methylthio-(E,E)-4,6-bis(3′-hydroxy-4′-methoxystyryl)pyrimidine] the “Cell Survival (%)” value (HT-22 cells) was 78.8 ± 9.3%, the viability at 25 µM [1] was 78.3 ± 0.4% and the remaining activity at 10 µM (beta amyloid (1-42)) was 24.8 ± 11.1%.

In the case of `CN(C)c1cc(/C=C/c2cccc(/C=C/c3ccc(O)c(N(C)C)c3)c2)ccc1O` [Ex. 20, (E,E)-1,3-bis[4′-hydroxy-3′-(N,N-dimethylamino)styryl]benzene], the “Cell Survival (%)” value (HT-22 cells) is reported as 95.7 ± 8.3%, the viability at 25 µM [1] is reported as 45.8 ± 9.1% and the remaining activity at 10 µM (beta amyloid (1-42)) is reported as 36.1 ± 10.1%.

In the case of `Oc1ccc(/C=C/c2cc(O)cc(/C=C/c3ccc(O)cc3)c2)cc1` [Ex. 22, (E,E)-3,5-bis(4′-hydroxystyryl)phenol], the “Cell Survival (%)” value (HT-22 cells) is reported as 37.4 ± 4.7%, the viability at 25 µM [1] is reported as 50.6 ± 10.1% and the remaining activity at 10 µM (beta amyloid (1-42)) is reported as 19.3 ± 1.1%.

In the case of `COc1nc(/C=C/c2ccc(O)c(OC)c2)cc(/C=C/c2ccc(O)c(OC)c2)n1` [Ex. 10, 2-methoxy-(E,E)-4,6-bis(4′-hydroxy-3′-methoxystyryl)pyrimidine], the “Cell Survival (%)” value (HT-22 cells) is reported as 75.2 ± 12.5%, the viability at 25 µM [1] is reported as 71.7 ± 14.8% and the remaining activity at 10 µM (beta amyloid (1-42)) is reported as 32 ± 11.6%.

For `COc1nc(/C=C/c2cccc(O)c2)cc(/C=C/c2cccc(O)c2)n1` [Ex. 9, 2-methoxy-(E,E)-4,6-bis(3′-hydroxystyryl)pyrimidine], the “Cell Survival (%)” value (HT-22 cells) was 45.9 ± 4.2%, the viability at 25 µM [1] was 47.7 ± 3.3% and the remaining activity at 10 µM (beta amyloid (1-42)) was 129 ± 11.6%.

With `COc1nc(/C=C/c2ccc(N(C)C)c(O)c2)cc(/C=C/c2ccc(N(C)C)c(O)c2)n1` [Ex. 13, 2-methoxy-(E,E)-4,6-bis[3′-hydroxy-4′-(N,N-dimethylamino)styryl]pyrimidine] the “Cell Survival (%)” value (HT-22 cells) was 101.4 ± 2.5%, the viability at 25 µM [1] was 67.4 ± 5.1% and the “Inhibitory activity against fibril formation (in words)” value (beta amyloid (1-42); Table 3) was “remarkable inhibitory activity”. The remaining activity at 10 µM (beta amyloid (1-42)) was 9.6 ± 3.7%.

With `COc1nc(/C=C/c2ccc(O)c(N(C)C)c2)cc(/C=C/c2ccc(O)c(N(C)C)c2)n1` [Ex. 12, 2-methoxy-(E,E)-4,6-bis[4′-hydroxy-3′-(N,N-dimethylamino)styryl]pyrimidine] the “Cell Survival (%)” value (HT-22 cells) was 96.6 ± 13.7%, the viability at 25 µM [1] was 59 ± 5.7% and the remaining activity at 10 µM (beta amyloid (1-42)) was 25.9 ± 7.3%.

With `COc1cc(/C=C/c2cc(O)cc(/C=C/c3ccc(O)c(OC)c3)c2)ccc1O` [Ex. 24, (E,E)-3,5-bis(4′-hydroxy-3′-methoxystyryl)phenol] the “Cell Survival (%)” value (HT-22 cells) was 80.9 ± 13.1%, the viability at 25 µM [1] was 39.9 ± 9.5% and the remaining activity at 10 µM (beta amyloid (1-42)) was 21 ± 2.4%.
